Entries after “also recorded” stand apart in the source; their conditions may differ.
Key:
AAD-12 = biological target: T1, AAD-12 (Delftia acidovorans, UniProt P83309); assay: Degradation activities of AAD-12 on phenoxy acetic acid herbicides by spectrophotometry (A510); type: biochemical, Comamonas acidovorans; conditions: for A510 of reaction group, Reaction 1 / A510 of reaction group, Reaction 2 / A510 of reaction group, Reaction 3: AAD-12 enzyme with substrate, chromogenic detection at 510 nm; for Increased A510: reaction group versus blank group
T1 construct: made in house; host or cells: E. coli BL21(DE3)
T1 sequence (P83309 2-292, added parts left off): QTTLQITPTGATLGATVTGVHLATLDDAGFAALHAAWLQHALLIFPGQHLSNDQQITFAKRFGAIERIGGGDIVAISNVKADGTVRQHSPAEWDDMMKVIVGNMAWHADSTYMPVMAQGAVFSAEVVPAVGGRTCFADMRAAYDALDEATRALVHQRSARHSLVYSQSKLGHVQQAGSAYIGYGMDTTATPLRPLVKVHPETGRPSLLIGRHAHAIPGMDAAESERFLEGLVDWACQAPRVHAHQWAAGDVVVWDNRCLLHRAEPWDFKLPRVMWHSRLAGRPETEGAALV
Method: As reported in literature (Fukomori and Flausinger, Purification and characterization of 2,4-dichlorophenoxyacetate/alpha-ketoglutarate dioxygenase Journal of Biological Chemistry (1993) 268(32): 24311-24317), the constructed expression vector pET15b-AAD12 was transformed into E. coli BL21(DE3) and induced by IPTG for expression. After cells were collected and lysed, Ni-NTA column was used for purification and the purity of the protein was analyzed by SDS-PAGE.
Since phenolic products were produced by AAD-12-substrate catalytic reaction, 4-aminoantipyrine and potassium ferricyanide could be used to develop color with the products in an alkaline environment to generate red products with absorption at 510 nm, and the relevant parameters were directly read with a microplate reader.

Arabidopsis thaliana [1] = assay: Herbicide resistance of transgenic Arabidopsis thaliana seedlings on plate medium (root growth); type: in vivo; conditions: plate medium: 2,4-D 0.3 μmol; 2,4-DB sodium 0.7 μmol; MCPA 0.1 μmol
Method: Expression in Arabidopsis thaliana was regulated by its AtUbi10 Arabidopsis thaliana ubiquitin promoter and the MAS (mannopine synthase) terminator. Hygromycin resistance gene (HygR=hpt) served as the selection marker.
Preparation of Agrobacterium infection solution: An activated Agrobacterium (GV3101) monoclone was picked and inoculated in 30 ml YEP liquid medium [yeast powder 10 g/L, tryptone 10 g/L, NaCl 5 g/L, 25 mg/L Rifampicin and 50 mg/L Kanamycin], shaking-cultured at 200 rmp/min, 28° C. overnight until the OD600 was about 1.0-1.5, then centrifuged at 6000 rmp/min for 10 min to collect the bacteria, and the supernatant was discarded. Arabidopsis thaliana infection solution (sucrose 50 g/L, Silwet L-77 300 μL/L, no need to adjust pH) was used to resuspend the cells to OD600=0.8 for later use.
Genetic transformation of Arabidopsis thaliana by flower dipping: Before transformation of Arabidopsis thaliana plants, attentions were paid to whether the plants were growing well, the inflorescences were abundant, and no stress response occurred. The first transformation was performed when plants were about 20 cm high. Plants could be properly watered if the soil was dry. The grown siliques were cut off with scissors the day before transformation. The inflorescences of the plants to be transformed were soaked in the above-mentioned Agrobacterium solution for 30 seconds to 1 minute, which was stirred gently during the period. And a layer of liquid film should appear on the infiltrated plant. The transformed plants were cultured in a dark environment for 24 hours, and then taken out and grown in a normal light environment. A second transformation could be performed in the same way a week later. […]

Arabidopsis thaliana [2] = assay: Spray testing of T2 generation transgenic Arabidopsis thaliana; type: in vivo; conditions: 100 g/ha foliage spray, 10 days after spraying
From the text: The T2 generation seedlings of four representative transformants, pQY2309, pQY2310, pQY2311 and pQY2313, were selected for further spray testing. Four lines were randomly selected from the T2 generation generated by transformation of each vector, and respectively foliage-sprayed with 2,4-D (100 g/ha), MCPA (100 g/ha) and 2,4-DB sodium (100 g/ha) when Arabidopsis thaliana seeds germinated, transplanted and the seedlings grew to 5-7 leaf. Non-transgenic wild-type Col-0 served as a negative control. The level of resistance was assessed 10 days after spraying.

Structure (SMILES)	Degradation activity of expressed AAD-12 enzyme on the substrate (AAD-12)	A510 of reaction group, Reaction 1 (AAD-12)	A510 of reaction group, Reaction 2 (AAD-12)	A510 of reaction group, Reaction 3 (AAD-12)	Increased A510 (AAD-12)	Effect of the herbicide on seminal roots of wild-type Col-0 (Arabidopsis thaliana [1])	Effect of the herbicide spray on wild-type Col-0 (Arabidopsis thaliana [2])
O=C(O)CCCOc1ccc(Cl)cc1Cl [2,4-DB, 4-(2,4-dichlorophenoxy)butanoic acid]	degradation activities	0.1373	0.1326	0.1345	+0.017		
CC(C)CCCCCOC(=O)COc1ccc(Cl)cc1Cl [2,4-D isooctyl ester]	degradation activities	0.1570	0.1578	0.1497	+0.019		
O=C([O-])CCCOc1ccc(Cl)cc1Cl.[Na+] [2,4-DB sodium, reference compound]						seminal roots are inhibited; also recorded: seminal roots are not able to grow	all or almost all non-transgenic wild-type Arabidopsis thaliana died; also recorded: severely injured
Cc1cc(Cl)ccc1OCC(=O)O [MCPA, (4-chloro-2-methylphenoxy)acetic acid]	degradation activities	0.1998	0.2076		+0.035	seminal roots are inhibited; also recorded: seminal roots are not able to grow	all or almost all non-transgenic wild-type Arabidopsis thaliana died; also recorded: all die

Source: patent US20240043859A1, “HERBICIDE-RESISTANT PROTEIN, AND GENE AND USE THEREOF” (QINGDAO KINGAGROOT CHEMICAL COMPOUND CO., LTD., priority 2020, published 2024)
